The source of these data is ChEMBL document CHEMBL4393728, “1-Phenyl-dihydrobenzoindazoles as novel colchicine site inhibitors: Structural basis and antitumor efficacy” (Eur J Med Chem, 2019).

Converted amounts (≈) assume the structure as drawn. The source made the active and inactive calls. The rule behind the calls is not given here.

Data set [1] concerns COLO 205. The data set is described as follows: Antiproliferative activity against human COLO205 cells assessed as reduction in cell viability incubated for 72 hrs by MTT assay. The class given is functional, cell-based. The conditions noted are these: COLO 205, 72 h.
In data set [2] the target is Tubulin (Bos taurus, UniProt Q6B856+Q862L2+Q862F3). The data set is described as follows: Inhibition of bovine brain tubulin polymerization measured every 1 min for 60 mins by turbidimetric assay.
In data set [3] the test system is COLO 205. Description: Antitumor activity against human COLO205 cells xenografted in BALB/c mouse assessed as reduction in tumor growth at 20 mg/kg, iv via tail once every 4 days for 16 days. It is filed as functional, organism-based.
Data set [4] deals with HCT-116. The data set is described as follows: Antitumor activity against human HCT116 cells xenografted in BALB/c mouse assessed as reduction in tumor growth at 20 mg/kg, iv via tail once every 4 days for 16 days. It is filed as functional, organism-based.
A short description of data set [5]: Toxicity in BALB/c mouse xenografted with HCT116 cells assessed as reduction in body weight at 20 mg/kg, iv via tail once every 4 days for 16 days. It is filed as organism-based. The following applies: in vivo.
In data set [6] the test system is HCT-116. Description: Antiproliferative activity against human HCT116 cells assessed as reduction in cell viability incubated for 72 hrs by MTT assay. The conditions noted are these: HCT-116, 72 h. The class given is functional, cell-based. (In general: Tetrazolium assays rely on reduction of a dye to a coloured formazan, in cell work by metabolically active cells.)

The nature of data set [7]: Toxicity in BALB/c mouse xenografted with COLO205 cells assessed as reduction in body weight at 20 mg/kg, iv via tail once every 4 days for 16 days. It is filed as organism-based. The following applies: in vivo.
Data set [8] in a line: Solubility of compound in normal saline. The class given is physicochemical.

A word on the IC50: it is the concentration at which inhibition is half-maximal. For `COc1ccc(-c2c3c(nn2-c2ccccc2)CCc2c-3cc(OC)c(OC)c2OC)cc1F`, the IC50 in data set [1] and in data set [2] was over 10000 nM each time.

For `COc1ccc(/C=C2\c3cc(OC)c(OC)c(OC)c3CC[C@H]2O)cc1`, the concentration for half-maximal inhibition (IC50) in data set [1] is 2970 nM; in data set [2], over 10000 nM.

For the compound `COc1ccc(-c2[nH]nc3c2-c2cc(OC)c(OC)c(OC)c2CC3)cc1[N+](=O)[O-]`, the values for the half-maximal inhibitory concentration (IC50) in data set [1] and in data set [2] were 300 nM and over 10000 nM, respectively.

For `COc1ccc(-c2c3c(nn2C)CCc2c-3cc(OC)c(OC)c2OC)cc1`, the half-inhibitory concentration (IC50) is 3350 nM in data set [1] and over 10000 nM in data set [2].

As to `COc1ccc(/C=C2\c3cc(OC)c(OC)c(OC)c3CC[C@@H]2O)cc1`, the concentration for half-maximal inhibition (IC50) in data set [1] is 8150 nM; in data set [2], over 10000 nM.

In the case of `COc1ccc(-c2c3c(nn2CCO)CCc2c-3cc(OC)c(OC)c2OC)cc1F`, the IC50 in data set [1] is 2910 nM; in data set [2] it was over 10000 nM.

In the case of `COc1ccc(-c2[nH]nc3c2-c2cc(OC)c(OC)c(OC)c2CC3)cc1F`, the half-inhibitory concentration (IC50) in data set [1] is 2 nM; in data set [2], 9200 nM.

Take `COc1ccc(-c2[nH]nc3c2-c2cc(OC)c(OC)c(OC)c2CC3)cc1NC(=O)[C@@H](N)CO.Cl`: the IC50 in data set [1] was 2110 nM; in data set [2], over 10000 nM; in data set [6] it was 1940 nM. Besides, the result in data set [3] and in data set [4] was Active. For the same compound, the Activity entry in data set [5] and in data set [7] was “Non-Toxic” throughout.

Turning to `COc1ccc(-c2c3c(nn2C)CCc2c-3cc(OC)c(OC)c2OC)cc1F`, the half-maximal inhibitory concentration (IC50) was 1230 nM in data set [1] and over 10000 nM in data set [2].

The solubility is the concentration that dissolves in the medium under given conditions. A higher solubility goes with a readily soluble substance. On to `COc1ccc(-c2[nH]nc3c2-c2cc(OC)c(OC)c(OC)c2CC3)cc1N`, for which the values for the concentration for half-maximal inhibition (IC50) in data set [1], in data set [2] and in data set [6] were 1 nM, 1600 nM and 1 nM, respectively. For the same compound, in data set [8], the concentration in solution (solubility) was 1000 µg/mL (≈ 2620 µM).

Consider `COc1ccc(/C=C\c2cc(OC)c(OC)c(OC)c2)cc1O` [COMBRETASTATIN A4], for which, in data set [6], the IC50 turned out to be 1 nM.
